pIC50: −log10 of the molar value. Calls of active or inactive are those of the source. No cut-off for these calls is given here.
Columns and labels:
[1] = molecular target: Protein kinase C epsilon type (Homo sapiens) (UniProt Q02156); test: Inhibition of human PKCepsilon at 1 uM using 3xChocktide-PKC as substrate in presence of 33P-ATP by ProQinase assay
[2] = tested on: TGF-beta receptor type-1 (Homo sapiens), P36897 [T204D]; test: Inhibition of recombinant human N-terminal GST-tagged TGFBR1 T204D mutant (200 to 501 residues) expressed in baculovirus infected Sf21 cells assessed as remaining activity at 1 uM using crosstide peptide as substrate incubated for 30 mins in presence of [gamma-33P]ATP by filter binding method relative to control
[3] = molecular target: Mitogen-activated protein kinase kinase kinase 11 (Homo sapiens) (UniProt Q16584); test: Inhibition of human MAP3K11 at 1 uM using MBP as substrate in presence of 33P-ATP by ProQinase assay
[4] = molecular target: Serine/threonine-protein kinase 26 (Homo sapiens) (UniProt Q9P289); test: Inhibition of human MST4 at 1 uM using RB-CTF as substrate in presence of 33P-ATP by ProQinase assay
Serine/threonine-protein kinase 26 (Homo sapiens), sequence (Q9P289 2-416 limits assumed): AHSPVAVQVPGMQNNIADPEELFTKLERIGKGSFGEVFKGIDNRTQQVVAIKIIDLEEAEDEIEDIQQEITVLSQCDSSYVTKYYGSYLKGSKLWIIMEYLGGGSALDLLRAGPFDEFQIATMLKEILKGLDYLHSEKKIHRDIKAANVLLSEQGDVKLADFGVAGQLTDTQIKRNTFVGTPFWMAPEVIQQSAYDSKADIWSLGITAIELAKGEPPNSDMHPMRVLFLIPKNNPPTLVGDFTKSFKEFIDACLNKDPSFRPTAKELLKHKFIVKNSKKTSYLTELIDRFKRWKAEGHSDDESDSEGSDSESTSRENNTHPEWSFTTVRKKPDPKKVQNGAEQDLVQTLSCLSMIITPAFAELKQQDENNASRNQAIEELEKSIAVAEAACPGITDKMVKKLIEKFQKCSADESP

[5] = molecular target: Interleukin-1 receptor-associated kinase 1 (Homo sapiens) (UniProt P51617); test: Inhibition of human IRAK1 at 1 uM using RB-CTF as substrate in presence of 33P-ATP by ProQinase assay
[6] = molecular target: Cyclin-dependent kinase 2/cyclin E1 (Homo sapiens) (UniProt P24864+P24941); test: Inhibition of human CDK2/CycE1 at 1 uM using RBER-CHKtide as substrate in presence of 33P-ATP by ProQinase assay; assay type: protein-complex assay
[7] = molecular target: Tau-tubulin kinase 2 (Homo sapiens) (UniProt Q6IQ55); test: Inhibition of recombinant human TTBK2 (1 to 450 residues) expressed in baculovirus infected Sf21 cells assessed as remaining activity at 1 uM using RRKDLHDDEEDEAMSITA as substrate incubated for 30 mins in presence of [gamma-33P]ATP by filter binding method relative to control
[8] = molecular target: PI3-kinase p110-delta/p85-alpha (Homo sapiens, UniProt O00329); test: Inhibition of human PIK3CD/PIK3R1 using PIP2/PS as substrate by ADP-Glo assay; assay type: protein-complex assay
PI3-kinase p110-delta/p85-alpha, sequence (P27986 whole entry, the tested form may be a part): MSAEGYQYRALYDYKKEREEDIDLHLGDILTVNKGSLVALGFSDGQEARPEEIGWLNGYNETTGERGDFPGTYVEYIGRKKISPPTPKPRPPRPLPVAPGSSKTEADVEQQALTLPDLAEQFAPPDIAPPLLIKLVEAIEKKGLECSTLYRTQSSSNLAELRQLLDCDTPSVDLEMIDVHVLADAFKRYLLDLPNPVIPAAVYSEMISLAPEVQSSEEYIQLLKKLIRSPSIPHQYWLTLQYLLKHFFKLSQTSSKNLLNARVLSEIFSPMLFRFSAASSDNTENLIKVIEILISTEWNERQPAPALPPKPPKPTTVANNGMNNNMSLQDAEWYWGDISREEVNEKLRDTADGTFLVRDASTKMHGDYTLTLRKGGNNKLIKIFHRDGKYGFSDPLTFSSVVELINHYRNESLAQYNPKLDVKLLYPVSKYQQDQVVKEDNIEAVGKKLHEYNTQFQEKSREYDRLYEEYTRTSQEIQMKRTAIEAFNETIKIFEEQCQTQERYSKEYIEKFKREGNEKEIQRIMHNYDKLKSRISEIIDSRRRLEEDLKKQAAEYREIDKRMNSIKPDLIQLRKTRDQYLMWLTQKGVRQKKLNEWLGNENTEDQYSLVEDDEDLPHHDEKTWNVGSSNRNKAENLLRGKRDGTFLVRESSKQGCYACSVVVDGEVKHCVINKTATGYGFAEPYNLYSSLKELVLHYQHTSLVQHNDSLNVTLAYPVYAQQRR
PI3-kinase p110-delta/p85-alpha, sequence (O00329 whole entry, the tested form may be a part): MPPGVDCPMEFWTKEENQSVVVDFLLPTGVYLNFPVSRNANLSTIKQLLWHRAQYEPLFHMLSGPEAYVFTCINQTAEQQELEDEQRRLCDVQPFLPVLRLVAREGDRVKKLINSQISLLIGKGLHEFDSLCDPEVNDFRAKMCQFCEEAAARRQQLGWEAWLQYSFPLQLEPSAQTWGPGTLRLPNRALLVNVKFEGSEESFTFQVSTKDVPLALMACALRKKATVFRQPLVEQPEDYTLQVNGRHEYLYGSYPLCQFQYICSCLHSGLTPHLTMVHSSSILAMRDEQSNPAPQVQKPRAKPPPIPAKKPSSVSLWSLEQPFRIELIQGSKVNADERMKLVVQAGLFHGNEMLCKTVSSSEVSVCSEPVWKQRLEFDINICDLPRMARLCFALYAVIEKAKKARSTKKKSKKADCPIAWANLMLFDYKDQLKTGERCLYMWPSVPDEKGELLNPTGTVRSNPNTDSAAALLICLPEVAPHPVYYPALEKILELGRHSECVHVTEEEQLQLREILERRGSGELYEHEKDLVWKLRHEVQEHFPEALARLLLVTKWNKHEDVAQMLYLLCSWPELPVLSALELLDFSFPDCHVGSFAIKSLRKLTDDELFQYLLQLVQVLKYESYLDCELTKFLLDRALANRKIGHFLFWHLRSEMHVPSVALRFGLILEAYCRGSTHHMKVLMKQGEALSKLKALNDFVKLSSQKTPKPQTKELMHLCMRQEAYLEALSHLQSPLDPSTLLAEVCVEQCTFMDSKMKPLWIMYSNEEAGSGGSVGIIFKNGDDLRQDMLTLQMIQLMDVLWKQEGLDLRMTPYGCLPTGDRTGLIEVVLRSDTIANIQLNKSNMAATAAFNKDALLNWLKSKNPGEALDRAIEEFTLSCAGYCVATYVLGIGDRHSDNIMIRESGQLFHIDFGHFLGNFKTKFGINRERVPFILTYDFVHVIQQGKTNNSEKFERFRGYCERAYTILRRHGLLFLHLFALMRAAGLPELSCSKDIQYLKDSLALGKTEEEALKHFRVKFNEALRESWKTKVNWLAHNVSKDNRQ

[9] = molecular target: LIM domain kinase 2 (Homo sapiens) (UniProt P53671); test: Inhibition of human LIMK2 at 1 uM using CFL1 as substrate in presence of 33P-ATP by ProQinase assay
[10] = molecular target: Rho-associated protein kinase 1 (Homo sapiens) (UniProt Q13464); test: Inhibition of human ROCK1 at 1 uM using 3xChocktide-PKC as substrate in presence of 33P-ATP by ProQinase assay
[11] = molecular target: Serine/threonine-protein kinase BRSK1 (Homo sapiens) (UniProt Q8TDC3); test: Inhibition of recombinant human N-terminal His6-tagged BRSK1 (2 to 778 residues) expressed in baculovirus infected Sf21 cells assessed as remaining activity at 1 uM using KKLNRTLSFAEPG as substrate incubated for 30 mins in presence of [gamma-33P]ATP by filter binding method relative to control
[12] = molecular target: Ribosomal protein S6 kinase beta-2 (Homo sapiens) (UniProt Q9UBS0); test: Inhibition of human S6K-beta at 1 uM using RBER-CHKtide as substrate in presence of 33P-ATP by ProQinase assay
Ribosomal protein S6 kinase beta-2 (Homo sapiens), sequence (Q9UBS0 whole entry, the tested form may be a part): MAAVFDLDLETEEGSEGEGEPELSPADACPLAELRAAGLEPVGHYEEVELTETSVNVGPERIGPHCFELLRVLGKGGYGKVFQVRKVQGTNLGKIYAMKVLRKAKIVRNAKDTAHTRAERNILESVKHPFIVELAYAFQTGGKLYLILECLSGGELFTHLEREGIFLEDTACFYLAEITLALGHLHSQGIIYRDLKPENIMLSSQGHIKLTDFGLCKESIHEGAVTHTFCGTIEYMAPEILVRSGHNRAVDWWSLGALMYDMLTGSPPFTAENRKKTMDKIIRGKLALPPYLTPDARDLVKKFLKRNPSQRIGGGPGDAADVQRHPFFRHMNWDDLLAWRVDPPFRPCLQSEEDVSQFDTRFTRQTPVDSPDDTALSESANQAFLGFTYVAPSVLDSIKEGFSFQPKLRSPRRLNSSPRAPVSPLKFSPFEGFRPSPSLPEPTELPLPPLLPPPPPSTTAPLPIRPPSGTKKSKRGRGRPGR

[13] = molecular target: Sphingosine kinase 2 (Homo sapiens) (UniProt Q9NRA0); test: Inhibition of recombinant human N-terminal His6-tagged SPHK2 (1 to 654 residues) expressed in baculovirus expression system at 1 uM using sphingosine as substrate incubated for 40 mins by ADP-Glo assay
[14] = molecular target: Casein kinase I isoform gamma-1 (Homo sapiens) (UniProt Q9HCP0); test: Inhibition of human CK1gamma1 at 1 uM using casein as substrate in presence of 33P-ATP by ProQinase assay
Casein kinase I isoform gamma-1 (Homo sapiens), sequence (Q9HCP0 whole entry, looked up, the tested form may be a part, canonical isoform): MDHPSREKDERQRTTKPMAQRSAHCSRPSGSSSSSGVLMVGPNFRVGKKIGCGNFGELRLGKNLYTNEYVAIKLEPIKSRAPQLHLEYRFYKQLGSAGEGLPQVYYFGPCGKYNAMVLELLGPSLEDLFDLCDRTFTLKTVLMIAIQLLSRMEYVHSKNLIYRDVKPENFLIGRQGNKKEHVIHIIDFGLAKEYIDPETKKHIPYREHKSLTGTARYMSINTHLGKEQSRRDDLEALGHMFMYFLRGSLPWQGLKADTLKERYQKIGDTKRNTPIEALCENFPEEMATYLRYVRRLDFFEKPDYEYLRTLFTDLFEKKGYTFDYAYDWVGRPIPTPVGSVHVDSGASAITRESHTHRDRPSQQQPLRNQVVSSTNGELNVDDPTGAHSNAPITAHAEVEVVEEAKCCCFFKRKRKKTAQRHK

[15] = molecular target: SRSF protein kinase 1 (Homo sapiens) (UniProt Q96SB4); test: (§1) Inhibition of recombinant human N-terminal GST-tagged SRPK1 (2 to 654 residues) expressed in Escherichia coli assessed as remaining activity at 1 uM using RSRSRSRSRSRSRSR as substrate incubated for 30 mins in presence of [gamma-33P]ATP by filter binding method relative to control
[16] = molecular target: Tyrosine-protein kinase Fer (Homo sapiens) (UniProt P16591); test: Inhibition of human FER at 1 uM using polyEY as substrate in presence of 33P-ATP by ProQinase assay
Tyrosine-protein kinase Fer (Homo sapiens), sequence (P16591 whole entry, looked up, the tested form may be a part): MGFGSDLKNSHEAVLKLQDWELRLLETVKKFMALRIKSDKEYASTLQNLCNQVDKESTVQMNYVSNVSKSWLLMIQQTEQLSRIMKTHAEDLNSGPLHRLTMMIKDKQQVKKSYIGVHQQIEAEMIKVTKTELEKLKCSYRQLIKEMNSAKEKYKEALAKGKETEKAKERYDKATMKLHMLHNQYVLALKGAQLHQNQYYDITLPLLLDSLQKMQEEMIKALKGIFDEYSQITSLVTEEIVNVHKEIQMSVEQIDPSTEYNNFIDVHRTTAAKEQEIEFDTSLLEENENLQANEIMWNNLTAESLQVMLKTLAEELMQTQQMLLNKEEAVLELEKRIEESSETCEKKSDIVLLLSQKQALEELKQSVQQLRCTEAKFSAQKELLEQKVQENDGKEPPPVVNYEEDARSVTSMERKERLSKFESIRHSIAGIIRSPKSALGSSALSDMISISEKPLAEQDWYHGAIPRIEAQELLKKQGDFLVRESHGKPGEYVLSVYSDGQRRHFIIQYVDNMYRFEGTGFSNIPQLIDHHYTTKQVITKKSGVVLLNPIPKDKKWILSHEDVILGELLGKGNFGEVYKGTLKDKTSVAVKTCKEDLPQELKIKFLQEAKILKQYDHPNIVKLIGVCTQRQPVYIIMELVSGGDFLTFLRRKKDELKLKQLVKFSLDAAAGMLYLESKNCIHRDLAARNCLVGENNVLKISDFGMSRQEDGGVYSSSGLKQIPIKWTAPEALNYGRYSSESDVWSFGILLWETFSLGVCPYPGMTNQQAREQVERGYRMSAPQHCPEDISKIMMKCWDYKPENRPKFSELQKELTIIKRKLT

[17] = molecular target: Tyrosine-protein kinase Yes (Homo sapiens) (UniProt P07947); test: Inhibition of recombinant human N-terminal His6-tagged YES1 (1 to 543 residues) expressed in baculovirus infected Sf21 cells assessed as remaining activity at 1 uM using Poly(Glu,Tyr) as substrate incubated for 30 mins in presence of [gamma-33P]ATP by filter binding method relative to control
[18] = molecular target: Ribosomal protein S6 kinase beta-1 (Homo sapiens) (UniProt P23443); test: Inhibition of human S6K1 at 1 uM using RBER-GSK3 as substrate in presence of 33P-ATP by ProQinase assay
[19] = molecular target: Serine/threonine-protein kinase MRCK alpha (Homo sapiens) (UniProt Q5VT25); test: Inhibition of human CDC42BPA at 1 uM using RB-S6P as substrate in presence of 33P-ATP by ProQinase assay
[20] = molecular target: Mitogen-activated protein kinase 11 (Homo sapiens) (UniProt Q15759); test: Inhibition of human P38beta at 1 uM using ATF2 as substrate in presence of 33P-ATP by ProQinase assay
Mitogen-activated protein kinase 11 (Homo sapiens), sequence (Q15759 whole entry): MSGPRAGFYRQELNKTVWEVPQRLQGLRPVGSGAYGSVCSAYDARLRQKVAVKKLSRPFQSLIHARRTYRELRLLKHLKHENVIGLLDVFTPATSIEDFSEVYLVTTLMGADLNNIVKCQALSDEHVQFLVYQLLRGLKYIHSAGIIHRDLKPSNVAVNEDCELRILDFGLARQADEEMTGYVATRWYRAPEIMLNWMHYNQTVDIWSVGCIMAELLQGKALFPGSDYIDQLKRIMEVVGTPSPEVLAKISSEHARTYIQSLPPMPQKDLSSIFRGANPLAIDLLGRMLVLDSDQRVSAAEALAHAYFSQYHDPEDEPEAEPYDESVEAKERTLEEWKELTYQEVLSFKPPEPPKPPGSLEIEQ

[21] = molecular target: Ribosomal protein S6 kinase alpha-5 (Homo sapiens) (UniProt O75582); test: Inhibition of human RPS6KA5 at 1 uM using RBER-CHKtide as substrate in presence of 33P-ATP by ProQinase assay
[22] = tested on: RAF proto-oncogene serine/threonine-protein kinase (Homo sapiens), P04049 [Y340D,Y341D]; test: Inhibition of human RAF1 Y340D/Y341D double mutant at 1 uM using MEK1-K97M as substrate in presence of 33P-ATP by ProQinase assay
RAF proto-oncogene serine/threonine-protein kinase (Homo sapiens), P04049 [Y340D,Y341D], sequence (P04049 whole entry Y340D/Y341D): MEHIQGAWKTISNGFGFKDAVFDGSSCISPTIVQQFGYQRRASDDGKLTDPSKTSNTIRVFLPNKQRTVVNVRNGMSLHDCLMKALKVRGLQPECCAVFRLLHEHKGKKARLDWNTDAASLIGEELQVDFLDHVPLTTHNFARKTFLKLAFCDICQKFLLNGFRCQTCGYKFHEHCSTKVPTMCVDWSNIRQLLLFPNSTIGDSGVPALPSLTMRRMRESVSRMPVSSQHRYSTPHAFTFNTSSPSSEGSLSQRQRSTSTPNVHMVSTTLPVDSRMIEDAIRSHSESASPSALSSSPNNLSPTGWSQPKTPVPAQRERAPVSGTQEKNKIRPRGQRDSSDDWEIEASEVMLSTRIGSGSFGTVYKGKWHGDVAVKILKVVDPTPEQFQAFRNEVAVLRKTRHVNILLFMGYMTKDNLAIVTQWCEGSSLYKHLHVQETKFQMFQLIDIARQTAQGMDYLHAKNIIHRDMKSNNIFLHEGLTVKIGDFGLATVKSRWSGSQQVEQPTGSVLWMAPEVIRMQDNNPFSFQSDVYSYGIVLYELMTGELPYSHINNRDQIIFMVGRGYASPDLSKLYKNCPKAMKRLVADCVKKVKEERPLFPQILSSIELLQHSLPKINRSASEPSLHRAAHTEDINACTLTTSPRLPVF

[23] = molecular target: CDK2/Cyclin A2 (Homo sapiens) (UniProt P24941+P20248); test: as §1, with “CDK2” for “SRPK1”, “298 residues)/N-terminal GST-tagged Cyclin A2 (171 to 432” for “654”, “YSPTSPSYSPTSPSYSPTSPKKK” for “RSRSRSRSRSRSRSR”
[24] = molecular target: Serine/threonine-protein kinase TAO2 (Homo sapiens) (UniProt Q9UL54); test: Inhibition of human TAOK2 at 1 uM using casein as substrate in presence of 33P-ATP by ProQinase assay
[25] = molecular target: Tyrosine-protein kinase ABL1 (Homo sapiens) (UniProt P00519); test: Inhibition of human ABL1 at 1 uM using poly(Ala,Glu,Lys,Tyr) as substrate in presence of 33P-ATP by ProQinase assay
[26] = molecular target: Casein kinase II subunit alpha' (Homo sapiens) (UniProt P19784); test: Inhibition of human CK2alpha2 at 1 uM using casein as substrate in presence of 33P-ATP by ProQinase assay

**Q.** Which inhibition [1] does the source give for `CC(C)(O)CNc1ncc(-c2ccnc(Nc3ccnc(Cl)c3)n2)c(CC2CC2)n1` here?
**A.** The inhibition was “inactive”.

**Q.** What about the Activity [2] of the same compound?
**A.** Its Activity is 123%.

**Q.** And the inhibition [3]?
**A.** The inhibition was “inactive”.

**Q.** And the inhibition [4]?
**A.** The inhibition was “inactive”.

**Q.** And the inhibition [5]?
**A.** The inhibition was “inactive”.

**Q.** What about the inhibition [6] of the same compound?
**A.** The inhibition was “inactive”.

**Q.** And the Activity [7]?
**A.** The Activity was 88%.

**Q.** And the pIC50 [8]?
**A.** Its pIC50 is < 5.00.

**Q.** And the inhibition [9]?
**A.** Its inhibition is “inactive”.

**Q.** And the inhibition [10]?
**A.** Its inhibition is “inactive”.

**Q.** What about the Activity [11] of the same compound?
**A.** Its Activity is 109%.

**Q.** And the inhibition [12]?
**A.** Its inhibition is “inactive”.

**Q.** What about the inhibition [13] of the same compound?
**A.** Its inhibition is “inactive”.

**Q.** And the inhibition [14]?
**A.** The inhibition was “inactive”.

**Q.** What about the Activity [15] of the same compound?
**A.** The Activity was 111%.

**Q.** What about the inhibition [16] of the same compound?
**A.** The inhibition was “inactive”.

**Q.** And the Activity [17]?
**A.** Its Activity is 77%.

**Q.** What about the inhibition [18] of the same compound?
**A.** The inhibition was “inactive”.

**Q.** What about the inhibition [19] of the same compound?
**A.** Its inhibition is “inactive”.

**Q.** And the inhibition [20]?
**A.** Its inhibition is “inactive”.

**Q.** And the inhibition [21]?
**A.** Its inhibition is “inactive”.

**Q.** What about the inhibition [22] of the same compound?
**A.** The inhibition was “inactive”.

**Q.** What about the Activity [23] of the same compound?
**A.** The Activity was 88%.

**Q.** And the inhibition [24]?
**A.** The inhibition was “inactive”.

**Q.** And the inhibition [25]?
**A.** Its inhibition is “inactive”.

**Q.** What about the inhibition [26] of the same compound?
**A.** Its inhibition is “inactive”.
